The assay deals with human APJ receptor (Homo sapiens (Human), UniProt P35414). The assay is described as follows: biochemical. The class given is biochemical. As for the experimental part: The human APJ receptor was cloned by polymerase chain reaction and the gene encoding the receptor was subcloned in pFLAG-CMV™-3 expression vector (Sigma, Saint Louis, Mo. USA) in-house at Amgen. A GTPγS binding assay was performed on membranes prepared from CHO cells stably expressing human APJ receptor. The optimum experimental conditions for the concentrations of GDP, MgCl2, and NaCl in the assay buffer were initially determined. The assay was performed in 9 μL assay buffer [20 mM HEPES, pH 7.5, 5 mM MgCl2, 100 mM NaCl and 0.1% (w/v) BSA], 1 μL of diluted test compound (starting with 0.75 mM, 2-fold serial dilution with DMSO, total 22 points), 10 μL of 18 µM GDP (final concentration of 3 μM GDP), 20 μL of […] membrane protein expressing human APJ receptor captured with WGA PS beads (final concentration of 5 μg per well), and 20 μL of 0.3 nM [^35S]GTPγS (final concentration is 0.1 nM [^35S]GTPγS)(Perkin Elmer Life and Analytical Sciences, Waltham USA).

[1] abbreviates: [35S]GTPγS binding, membranes from CHO cells stably expressing human APJ receptor, read-out: Activity hAPJ SPA EC50 IP.
Where [2] appears, read: read-out: Activity hAPJ SPA EC50 IP.

Read-outs that look alike come from different tables or passages of the source.

Chain of human APJ receptor (P35414 whole entry): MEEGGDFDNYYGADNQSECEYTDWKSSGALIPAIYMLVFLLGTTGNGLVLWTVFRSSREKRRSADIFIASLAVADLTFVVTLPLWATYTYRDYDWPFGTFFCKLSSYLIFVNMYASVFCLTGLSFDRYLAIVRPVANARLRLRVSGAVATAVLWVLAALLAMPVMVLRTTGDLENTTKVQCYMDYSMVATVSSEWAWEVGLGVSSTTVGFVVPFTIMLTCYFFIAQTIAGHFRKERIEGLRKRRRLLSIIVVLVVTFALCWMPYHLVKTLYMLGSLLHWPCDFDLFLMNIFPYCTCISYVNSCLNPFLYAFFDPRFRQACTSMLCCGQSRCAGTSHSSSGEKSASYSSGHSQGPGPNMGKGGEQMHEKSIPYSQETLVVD

Consider `CC[C@@H](OC)c1nnc(NS(=O)(=O)[C@@H](C)[C@H](C)c2ncc(Cl)cn2)n1-c1c(OC)ncnc1OC` (single isomer, unassigned) [Example 6.0, (2S,3R)-3-(5-chloro-2-pyrimidinyl)-N-(4-(4,6-dimethoxy-5-pyrimidinyl)-5-((1R)-1-methoxypropyl)-4H-1,2,4-triazol-3-yl)-2-butanesulfonamide or (2S,3R)-3-(5-chloro-2-pyrimidinyl)-N-(4-(4,6-dimethoxy-5-pyrimidinyl)-5-((1S)-1-methoxypropyl)-4H-1,2,4-triazol-3-yl)-2-butanesulfonamide], for which the EC50 (as a rule, the concentration giving half of the maximal effect) under setting [1] amounted to 740 nM.
`COCCc1nnc(NS(=O)(=O)[C@@H](C)[C@H](OC)c2ncc(Cl)cn2)n1C(COC)COC` [Example 146.0]: under setting [1], the EC50 came to 250 nM.
With `COc1cccc(OC)c1-n1c(COC(C)C)nnc1NS(=O)(=O)[C@@H](C)[C@H](C)c1ncc(Cl)cn1` [Example 161.0], the EC50 under setting [2] turned out to be 2.2 nM.
Take `COc1cccc(OC)c1-n1c(CC(C)(C)OC)nnc1NS(=O)(=O)[C@@H](C)[C@H](C)c1ncc(Cl)cn1` [Example 40.0, (2S,3R)-3-(5-chloro-2-pyrimidinyl)-N-(4-(2,6-dimethoxyphenyl)-5-(2-methoxy-2-methylpropyl)-4H-1,2,4-triazol-3-yl)-2-butanesulfonamide]: the EC50 under setting [1] was 110 nM.
Take `COc1cccc(OC)c1-n1c(C)nnc1NS(=O)(=O)[C@@H](C)[C@H](OC)c1ncc(C)cn1` [Example 26.0, (1R,2S)-N-(4-(2,6-dimethoxyphenyl)-5-methyl-4H-1,2,4-triazol-3-yl)-1-methoxy-1-(5-methylpyrimidin-2-yl)propane-2-sulfonamide]: under setting [1], the EC50 stood at 120 nM.
`CCCCc1nnc(NS(=O)(=O)[C@@H](C)[C@H](C)c2ncc(C)cn2)n1-c1c(OC)cccc1OC` [Example 176.0]: under setting [1], the EC50 amounted to 1.9 nM.
`COc1cccc(OC)c1-n1c(CS(C)(=O)=O)nnc1NS(=O)(=O)[C@@H](C)[C@H](C)c1ncc(Cl)cn1` [Example 37.0, (2S,3R)-3-(5-chloro-2-pyrimidinyl)-N-(4-(2,6-dimethoxyphenyl)-5-((methylsulfonyl)methyl)-4H-1,2,4-triazol-3-yl)-2-butanesulfonamide]: the EC50 under setting [1] worked out at 340 nM.
Regarding `COc1ccc(Cc2nnc(NS(=O)(=O)[C@@H](C)[C@H](OC)c3ncc(C)cn3)n2-c2c(OC)cccc2OC)cc1` [Example 49.0], the EC50 under setting [1] turned out to be 170 nM.
For `COc1cccc(OC)c1-n1c(Cc2ccsc2)nnc1NS(=O)(=O)[C@@H](C)[C@H](C)c1ncc(Cl)cn1` [Example 38.0, (2S,3R)-3-(5-chloro-2-pyrimidinyl)-N-(4-(2,6-dimethoxyphenyl)-5-(3-thiophenylmethyl)-4H-1,2,4-triazol-3-yl)-2-butanesulfonamide], the EC50 under setting [1] is 6 nM.
The same measure, in the same setting: as for `CO[C@H](c1ncc(Cl)cn1)[C@H](C)S(=O)(=O)Nc1nnc(CC2CCC2)n1C1CCOCC1` [Example 25.0, (1R,2S)-1-(5-chloro-2-pyrimidinyl)-N-(5-(cyclobutylmethyl)-4-(tetrahydro-2H-pyran-4-yl)-4H-1,2,4-triazol-3-yl)-1-methoxy-2-propanesulfonamide], the figure is 370 nM; as for `COc1cccc(OC)c1-n1c(Cc2ccccn2)nnc1NS(=O)(=O)[C@@H](C)[C@H](C)c1ncc(Cl)cn1` [Example 35.0, (2S,3R)-3-(5-chloro-2-pyrimidinyl)-N-(4-(2,6-dimethoxyphenyl)-5-(2-pyridinylmethyl)-4H-1,2,4-triazol-3-yl)-2-butanesulfonamide], 32 nM.
In the case of `COCc1nnc(NS(=O)(=O)[C@@H](C)[C@H](OC)c2ccc(Cl)cn2)n1-c1c(OC)cccc1OC` [Example 76.0, (1R,2S)-1-(5-chloropyridin-2-yl)-N-(4-(2,6-dimethoxyphenyl)-5-(methoxymethyl)-4H-1,2,4-triazol-3-yl)-1-methoxypropane-2-sulfonamide], under setting [2], the EC50 is 4.8 nM.
As for `COc1cccc(OC)c1-n1c(NS(=O)(=O)[C@@H](C)[C@H](C)c2ncc(C)cn2)nnc1[C@@H](OC)c1ccccc1` [Example 19.0, (2S,3R)-N-(4-(2,6-dimethoxyphenyl)-5-((S)-methoxy(phenyl)methyl)-4H-1,2,4-triazol-3-yl)-3-(5-methyl-2-pyrimidinyl)-2-butanesulfonamide], the EC50 under setting [1] worked out at 200 nM.
With `COc1cccc(OC)c1-n1c(C[C@@H]2CCCO2)nnc1NS(=O)(=O)[C@@H](C)[C@H](C)c1ncc(Cl)cn1` (mixture of isomers) [Example 46.0, (2S,3R)-3-(5-chloro-2-pyrimidinyl)-N-(4-(2,6-dimethoxyphenyl)-5-((2R)-tetrahydro-2-furanylmethyl)-4H-1,2,4-triazol-3-yl)-2-butanesulfonamide and (2S,3R)-3-(5-chloro-2-pyrimidinyl)-N-(4-(2,6-dimethoxyphenyl)-5-((2S)-tetrahydro-2-furanylmethyl)-4H-1,2,4-triazol-3-yl)-2-butanesulfonamide], the EC50 under setting [1] is 330 nM.
With `CCCCc1nnc(NS(=O)(=O)[C@@H](C)[C@H](C)c2ncc(Cl)cn2)n1-c1c(OC)cccc1OC` [Example 164.0], the EC50 under setting [1] stood at 0.84 nM.
Same read-out and setting: as for `COc1ncnc(OC)c1-n1c(COC(F)F)nnc1NS(=O)(=O)[C@@H](C)[C@H](C)c1ncc(Cl)cn1` [Example 127.0, (2S,3R)-3-(5-chloropyrimidin-2-yl)-N-(5-((difluoromethoxy)methyl)-4-(4,6-dimethoxypyrimidin-5-yl)-4H-1,2,4-triazol-3-yl)butane-2-sulfonamide], the figure is 38 nM; as for “(S)-N-(4-(2,6-dimethoxyphenyl)-5-(methoxymethyl)-4H-1,2,4-triazol-3-yl)-l-(5-fluoropyrimidin-2-yl)piperidine-3-sulfonamide or (R)-N-(4-(2,6-dimethoxyphenyl)-5-(methoxymethyl)-4H-1,2,4-triazol-3-yl)-l-(5-fluoropyrimidin-2-yl)piperidine-3-sulfonamide [Example 78.0]”, 615 nM.
In the case of `COc1ncnc(OC)c1-n1c(COC(C)C)nnc1NS(=O)(=O)[C@@H](C)[C@H](C)c1ncc(Cl)cn1` [Example 80.0, (2S,3R)-3-(5-chloropyrimidin-2-yl)-N-(4-(4,6-dimethoxypyrimidin-5-yl)-5-(isopropoxymethyl)-4H-1,2,4-triazol-3-yl)butane-2-sulfonamide], the 50% effective concentration (EC50) under setting [1] is 2.4 nM.
In the case of `COc1ccc(Cl)c(-n2c(COC(F)F)nnc2NS(=O)(=O)[C@@H](C)[C@H](OC)c2ncc(Cl)cn2)c1` [Example 160.0], the EC50 under setting [1] was found to be 21 nM.
Regarding `COc1ncnc(OC)c1-n1c(CC2CC2)nnc1NS(=O)(=O)[C@@H](C)[C@H](OC)c1ncc(Cl)cn1` [Example 27.0, (1R,2S)-1-(5-chloro-2-pyrimidinyl)-N-(5-(cyclopropylmethyl)-4-(4,6-dimethoxy-5-pyrimidinyl)-4H-1,2,4-triazol-3-yl)-1-methoxy-2-propanesulfonamide], the EC50 under setting [1] was found to be 7.6 nM.
As to `CO[C@H](c1ncc(Cl)cn1)[C@H](C)S(=O)(=O)Nc1nnc(C)n1C1(C)CC1` [Example 55.0, (1R,2S)-1-(5-chloropyrimidin-2-yl)-1-methoxy-N-(5-methyl-4-(1-methylcyclopropyl)-4H-1,2,4-triazol-3-yl)propane-2-sulfonamide], the EC50 under setting [1] came out at 540 nM.
As for `COCc1nnc(NS(=O)(=O)[C@@H](C)[C@@H](OC(C)C)c2ncc(Cl)cn2)n1-c1c(OC)ncnc1OC` [Example 134.0], the EC50 under setting [1] turned out to be 12 nM.
`COc1cccc(OC)c1-n1c(Cc2cccnc2)nnc1NS(=O)(=O)[C@@H](C)[C@H](C)c1ncc(C)cn1` [Example 15.0, (2S,3R)-N-(4-(2,6-dimethoxyphenyl)-5-(3-pyridinylmethyl)-4H-1,2,4-triazol-3-yl)-3-(5-methyl-2-pyrimidinyl)-2-butanesulfonamide]: the EC50 under setting [1] was found to be 180 nM.
For `COCc1nnc(NS(=O)(=O)[C@@H](C)[C@H](OC)c2ncc(Cl)cn2)n1-c1c(OC)cccc1OC` [Example 12.0, (1R,2S)-1-(5-chloro-2-pyrimidinyl)-N-(4-(2,6-dimethoxyphenyl)-5-(methoxymethyl)-4H-1,2,4-triazol-3-yl)-1-methoxy-2-propanesulfonamide], the EC50 under setting [2] was 4.8 nM.
Regarding `COc1ncnc(OC)c1-n1c(CC(C)(C)C)nnc1NS(=O)(=O)[C@@H](C)[C@H](C)c1ncc(Cl)cn1` [Example 1.0, (2S,3R)-3-(5-chloro-2-pyrimidinyl)-N-(4-(4,6-dimethoxy-5-pyrimidinyl)-5-(2,2-dimethylpropyl)-4H-1,2,4-triazol-3-yl)-2-butanesulfonamide], the EC50 under setting [1] was 240 nM.
As to `COc1cccc(OC)c1-n1c(COC(F)F)nnc1NS(=O)(=O)[C@@H](C)[C@H](OC)c1ncc(Cl)cn1` [Example 65.0, (1R,2S)-1-(5-chloro-2-pyrimidinyl)-N-(5-((difluoromethoxy)methyl)-4-(2,6-dimethoxyphenyl)-4H-1,2,4-triazol-3-yl)-1-methoxy-2-propanesulfonamide], the EC50 was 5.7 nM.
As to `[2H]C([2H])([2H])OCc1nnc(NS(=O)(=O)[C@@H](C)[C@H](OC)c2ncc(Cl)cn2)n1-c1c(OC)cccc1OC` [Example 129.0, (1R,2S)-1-(5-chloro-2-pyrimidinyl)-N-(4-(2,6-dimethoxyphenyl)-5-(((˜2-H_3_)methyloxy)methyl)-4H-1,2,4-triazol-3-yl)-1-methoxy-2-propanesulfonamide], the midpoint of the response, the EC50, lay at 4.3 nM.
On to `COCc1nnc(NS(=O)(=O)[C@@H](C)[C@H](OC)c2ncc(Cl)cn2)n1-c1c(F)cccc1F` [Example 131.0], for which, under setting [1], the EC50 turned out to be 20 nM.

These data come from US11191762B2, “Alkyl substituted triazole compounds as agonists of the APJ Receptor” (priority 2016, dated 2021).
